Experimental data reported in patent US11001590B2, “Pyrazolopyrimidine derivatives” (BAYER ANIMAL HEALTH GMBH, priority 2016, dated 2021).

Molecular target: C. elegans Slo-1a (Caenorhabditis elegans, UniProt Q95V25)
Experiment: In vitro assay 1: C. elegans Slo-1a, action at a recombinant C. elegans CHO cell line (membrane potential measurement)
Conditions: CHO cells expressing C. elegans Slo-1a; voltage sensitive dye, FLIPR Tetra; negative decadic logarithm of EC50
Procedure: In Vitro Assay 1: C. Eleqans Slo-La—Action at a Recombinant C. elegans Cell Line
Cells were cultured at 37° C. and 5% CO2 in MEMalpha with Gutamax I (Invitrogen, Nr.: 32571), supplemented with 10% (v/v) heat inactivated fetal bovine serum (Invitrogen, Nr.: 10500), G418 (1 mg/ml, Invitrogen, Nr.: 10131). Cells were detached using Accutase (Sigma, Nr.: A6964).
Membrane Potential Measurements
Laboratory compound testing was performed on 384-well microtiter plates (MTPs, Greiner, Nr.: 781092). 8000 cells/well were plated onto 384-well MTPs and cultured for 20 to 24 hours at 37° C. and 5% CO2. After removal of the cell culture medium, the cells were washed once with tyrode (150 mM NaCl, 0.3 mM KCl, 2 mM CaCl2, 1 mM MgCl2, 0.8 mM NaH2PO4, 5 mM Glucose, 28 mM Hepes, pH 7.4) and then loaded with the voltage sensitive dye of the Membrane Potential Assay Kit diluted in tyrode for 1 h at room temperature.
After starting the measurement of fluorescence using a FLIPR Tetra (Molecular Devices, Exc. 510-545 nm, Emm. 565-625 nm), test compounds were added followed by the addition of KCl tyrode (final assay concentration: 70 mM KCl, 2 mM CaCl2, 1 mM MgCl2, 0.8 mM NaH2PO4, 5 mM Glucose, 28 mM Hepes, pH 7.4, including the voltage sensitive dye). The measurement was completed after 7 minutes.

C. elegans Slo-1a, sequence (Q95V25 whole entry): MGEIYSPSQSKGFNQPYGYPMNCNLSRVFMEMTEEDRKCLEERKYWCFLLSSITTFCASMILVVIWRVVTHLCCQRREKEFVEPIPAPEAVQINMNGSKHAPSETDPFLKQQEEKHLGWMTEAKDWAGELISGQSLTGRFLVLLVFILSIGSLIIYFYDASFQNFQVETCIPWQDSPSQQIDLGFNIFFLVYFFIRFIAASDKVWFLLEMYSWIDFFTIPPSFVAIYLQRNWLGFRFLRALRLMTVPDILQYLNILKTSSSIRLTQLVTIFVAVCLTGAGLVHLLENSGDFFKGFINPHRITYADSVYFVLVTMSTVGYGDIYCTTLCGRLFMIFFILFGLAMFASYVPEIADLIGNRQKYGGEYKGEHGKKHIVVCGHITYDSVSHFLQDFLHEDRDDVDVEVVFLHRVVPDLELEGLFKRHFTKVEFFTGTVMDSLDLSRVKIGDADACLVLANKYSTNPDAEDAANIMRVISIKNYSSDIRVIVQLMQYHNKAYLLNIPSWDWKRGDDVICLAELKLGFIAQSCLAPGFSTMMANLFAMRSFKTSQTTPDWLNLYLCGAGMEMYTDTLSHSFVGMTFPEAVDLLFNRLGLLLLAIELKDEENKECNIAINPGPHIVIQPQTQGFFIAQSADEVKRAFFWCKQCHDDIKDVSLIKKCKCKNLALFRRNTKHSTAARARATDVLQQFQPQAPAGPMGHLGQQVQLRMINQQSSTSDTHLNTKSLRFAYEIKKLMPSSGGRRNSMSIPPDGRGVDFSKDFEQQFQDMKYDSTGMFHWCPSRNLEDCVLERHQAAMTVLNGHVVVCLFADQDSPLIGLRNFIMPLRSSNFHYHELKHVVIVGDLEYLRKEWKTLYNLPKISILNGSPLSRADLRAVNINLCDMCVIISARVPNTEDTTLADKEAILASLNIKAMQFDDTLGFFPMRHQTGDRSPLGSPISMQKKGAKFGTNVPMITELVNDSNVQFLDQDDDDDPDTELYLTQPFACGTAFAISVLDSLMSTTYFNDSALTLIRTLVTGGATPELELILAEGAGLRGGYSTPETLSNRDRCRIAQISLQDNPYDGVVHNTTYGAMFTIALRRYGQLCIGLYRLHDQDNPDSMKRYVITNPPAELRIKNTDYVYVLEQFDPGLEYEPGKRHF

| Compound | pE50 |
| --- | --- |
| Cc1nn2c(C(C)C)c(C(=O)N[C@H]3CCc4ccccc43)cnc2c1-c1cc(Cl)cc(Cl)c1 [Example 8] | 7.5 |
| Cc1nn2c(C)c(C(=O)N[C@H]3CCCc4ccccc43)cnc2c1-c1ccccc1Cl [Example 9] | 7.8 |
| Cc1nn2c(C)c(C(=O)N[C@H]3CCc4ccccc43)cnc2c1-c1ccccc1Cl [Example 14] | 7.7 |
| Cc1nn2c(C)c(C(=O)N[C@H]3CCCc4ccccc43)cnc2c1-c1cccc(C(F)(F)F)c1 [Example 15] | 6.7 |
| Cc1nn2c(C)c(C(=O)N[C@H]3CCc4ccccc43)cnc2c1-c1cccc(C(F)(F)F)c1 [Example 16] | 6.7 |
| Cc1nn2c(C(C)C)c(C(=O)N[C@H]3CCCc4ccccc43)cnc2c1-c1ccccc1Cl [Example 19] | 8 |
| Cc1nn2c(C(C)C)c(C(=O)N[C@H]3CCc4ccccc43)cnc2c1-c1ccccc1Cl [Example 20] | 7.9 |
| CC(C)c1c(C(=O)N[C@H]2CCCc3ccccc32)cnc2c(-c3ccccc3Cl)cnn12 [Example 21] | 6.5 |
| CC(C)c1c(C(=O)N[C@H]2CCc3ccccc32)cnc2c(-c3ccc(Cl)cc3)cnn12 [Example 23] | 7.2 |
| CC(C)c1c(C(=O)N[C@H]2CCc3ccccc32)cnc2c(-c3ccccc3Cl)cnn12 [Example 24] | 7.2 |
| CC(C)c1c(C(=O)N[C@H]2CCCc3ccccc32)cnc2c(-c3ccc(Cl)cc3)cnn12 [Example 25] | 6.6 |
| Cc1nn2c(C)c(C(=O)N[C@H]3CCc4ccccc43)cnc2c1-c1ccc(Cl)cc1 [Example 27] | 7.2 |
| Cc1nn2c(C(C)C)c(C(=O)N[C@H]3CCCc4ccccc43)cnc2c1-c1ccc(Cl)cc1 [Example 29] | 6.7 |
| Cc1c(C(=O)N[C@H]2CCc3ccccc32)cnc2c(-c3ccc(Cl)cc3)cnn12 [Example 31] | 6.7 |
| Cc1nn2c(C(C)C)c(C(=O)N[C@H]3CCc4ccccc43)cnc2c1-c1ccc(Cl)cc1 [Example 32] | 7.5 |
| CC(C)c1c(C(=O)N[C@H]2CCc3ccccc32)cnc2c(-c3cccc(C(F)(F)F)c3)cnn12 [Example 37] | 6.7 |
| CC(C)c1c(C(=O)N[C@H]2CCc3ccccc32)cnc2c(-c3cccc(Cl)c3)cnn12 [Example 40] | 6.5 |
| Cc1c(C(=O)N[C@H]2CCCc3ccccc32)cnc2c(-c3ccc(Cl)cc3)cnn12 [Example 41] | 4.8 |
| Cc1c(C(=O)N[C@H]2CCCc3ccccc32)cnc2c(-c3ccccc3Cl)cnn12 [Example 42] | 6.2 |
| Cc1c(C(=O)N[C@H]2CCc3ccccc32)cnc2c(-c3ccccc3Cl)cnn12 [Example 43] | 6.8 |
| COc1c(F)ccc(-c2c(C(F)F)nn3c(C4CC4)c(C(=O)N[C@H]4CCOc5ccccc54)cnc23)c1F [Example 269] | 9 |
| O=C(N[C@H]1CCOc2ccccc21)c1cnc2c(-c3cccc(F)c3F)c(C(F)F)nn2c1C1CC1 [Example 270] | 8.4 |
| O=C(N[C@H]1CCOc2ccccc21)c1cnc2c(-c3c(Cl)cccc3Cl)c(C(F)F)nn2c1C1CC1 [Example 271] | 8.5 |
| O=C(N[C@H]1CCOc2ccccc21)c1cnc2c(-c3cc(Cl)c(F)c(Cl)c3)c(C(F)F)nn2c1C1CC1 [Example 272] | 7.6 |
| O=C(N[C@H]1CCOc2ccccc21)c1cnc2c(-c3cccc(Cl)c3)c(C(F)F)nn2c1C1CC1 [Example 273] | 8.3 |
| O=C(N[C@H]1CCOc2ccccc21)c1cnc2c(-c3ccc(F)c(F)c3)c(C(F)F)nn2c1C1CC1 [Example 274] | 7.7 |
| CC(C)c1c(C(=O)N[C@H]2CCOc3ccccc32)cnc2c(-c3cccc(Cl)c3)c(Cl)nn12 [Example 275] | 7.9 |
| CC(C)c1c(C(=O)N[C@H]2CCOc3ccccc32)cnc2c(-c3cccc(Cl)c3)c(C(F)F)nn12 [Example 276] | 8 |
| CC(C)c1c(C(=O)N[C@H]2CCOc3ccccc32)cnc2c(-c3c(F)ccc(Cl)c3F)c(C(F)F)nn12 [Example 277] | 8.8 |
